Values of other authors as cited in US12097195B2, “Pharmaceutical composition containing alkynyl compound and preparation method and application thereof” (ASCENTAGE PHARMA (SUZHOU) CO., LTD., priority 2019, dated 2024).

In the case of Cc1ccc(C(=O)Nc2ccc(CN3CCN(C)CC3)c(C(F)(F)F)c2)cc1C#Cc1cnc2[nH]ncc2c1 [alknyl compound, 3-((1H-pyrazolo[3,4-b]pyridin-5-yl)ethynyl)-4-methyl-N-(4-((4-methylpiperazin-1-yl)methyl)-3-(trifluoromethyl)phenyl)-benzamide], the inhibition rate (chronic leukemia K562) is given as “very good inhibition rate” and the inhibition rate (acute leukemia MOLT) is given as “very good inhibition rate”.
